# Measurements reported in patent publication US20100137448A1, “Methods for Treating Neuropsychiatric Disorders with NMDA Receptor Antagonists” (priority 2000, published 2010).
# “Also recorded” adds a separate entry of the source.
# Tests used:
# [1] = system: precontracted aortic vessel; experiment: Relaxation of norepinephrine-precontracted rabbit aortic rings; format: tissue-based
# Protocol: New Zealand white female rabbits weighing 3-4 kilograms were anesthetized with sodium pentobarbital, 13 milligram per kilogram. Descending thoracic aorta were isolated, the vessels were cleaned of adherent tissue and the endothelium was removed by a gentle rubbing with a cotton-tipped applicator inserted into the lumen. The vessels were cut into 5 millimeter rings and mounted on stirrups connected to transducers by which changes in isometric tension were recorded (model TO3C, Grass Instruments, Quincy, Mass.). Vessel rings were suspended in 20 mL of oxygenated Krebs buffer at 37° C. and sustained contractions were induced with 1 μM norepinephrine. The vessels were then relaxed in a dose-dependent fashion ([…] through 10^−5 M compound 8). In some experiments vessels were pretreated with methylene blue or […] hemoglobin to block relaxations.
# Relaxations were attenuated by methylene blue (c) and hemoglobin (d) indicating an NO-related effect. (b) is a control with solvent.
# cerebrocortical neurons = experiment: NMDA-induced apoptosis of cerebrocortical neurons (in vitro protection); format: cell-based
# Protocol: Cerebrocortical cultures were exposed to 300 μM NMDA for 20 mm with or without various concentrations of compound 7. The next day cultures were analyzed by neuronal apoptosis as described in Example 19.
# Under these conditions (300 μM NMDA exposure for 20 mm, followed by washout), neuronal apoptosis was monitored 24 hours later by propidium iodide uptake and morphology of fixed, permeabilized neurons, among other techniques (Bonfoco et al., Proc Natl Acad Sci USA (1995) 92: 7162). NMDA induced about 20% apoptosis of neurons, and that 25-100 μM compound 7 afforded protection from this damage (P<0.001, FIG. 5).
# C57B1/6 mice = experiment: Murine cerebral ischemia model, intraluminal suture MCA occlusion; format: in vivo
# Protocol: The intraluminal suture technique was used to produce a 2 hr occlusion of the middle cerebral artery (MCA), following the same protocol for focal cerebral ischemial reperfusion as published previously (Chen, et al., Neuroscience (1998) 86: 1121). However, here C57B1/6 mice were used instead of rats. […] To produce a neuroprotective concentration of compound 7, the loading dose was 100 mg/kg i.p. and the maintenance dose was 40 mg/kg i.p. every 12 hr. In each case, drug or vehicle control was initially administered 2 hr after MCA occlusion. […] The animals were sacrificed and analyzed with TTC staining 48 hr after MCA occlusion (Chen, et al., Neuroscience (1998) 86: 1121).
# [2] = humans, 5 to 30 mg/day; cited from earlier work
# [3] = loading dose 20 mg/kg i.p., maintenance 1 mg/kg/12 hours; cited from earlier work
# [4] = cited from earlier work
# human albumin = human albumin (Homo sapiens, UniProt P02768); settings: cited from earlier work
# Chain of human albumin (P02768 25-609): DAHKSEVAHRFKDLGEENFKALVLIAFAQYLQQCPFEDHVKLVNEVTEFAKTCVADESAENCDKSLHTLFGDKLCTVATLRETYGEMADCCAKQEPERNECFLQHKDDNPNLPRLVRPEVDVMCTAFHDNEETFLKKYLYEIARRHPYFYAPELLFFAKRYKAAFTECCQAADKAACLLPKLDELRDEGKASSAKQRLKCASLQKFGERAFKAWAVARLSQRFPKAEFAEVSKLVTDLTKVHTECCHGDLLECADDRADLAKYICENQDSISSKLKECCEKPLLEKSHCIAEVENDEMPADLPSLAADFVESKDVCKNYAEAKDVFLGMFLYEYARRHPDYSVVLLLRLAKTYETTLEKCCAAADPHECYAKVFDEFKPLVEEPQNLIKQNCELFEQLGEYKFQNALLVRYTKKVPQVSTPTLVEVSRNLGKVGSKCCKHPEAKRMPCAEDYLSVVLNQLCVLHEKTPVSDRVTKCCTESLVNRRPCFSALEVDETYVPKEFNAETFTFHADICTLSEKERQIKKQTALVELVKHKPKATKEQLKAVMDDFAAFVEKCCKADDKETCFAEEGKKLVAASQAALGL
compound,measurement,setting,value
"1-amino-3,5-dimethyl-7-hydroxyadamantane hydrochloride [Compound 9]","effect on blood vessel, compared with solvent (EtOH)","[1]; FIG. 8, hydrochloride",either no effect or slight blood vessel contractions
same,"effect on blood vessel, compared with solvent (EtOH)","[1]; FIG. 8, listed as compound 9, hydrochloride",either no effect or slight contractions of blood vessels
"CC(=O)NC12CC3(C)CC(C)(CC(O)(C3)C1)C2 [Compound 3, 1-acetamido-3,5-dimethyl-7-hydroxyadamantane]",melting point,,194 to 195 °C
"CC12CC3(C)CC(N)(C1)CC(O[N+](=O)[O-])(C2)C3.Cl [Compound 7, 1-amino-3,5-dimethyl-7-nitrateadamantane hydrochloride]",effect on blood vessel at 10 μM,"[1]; 10 μM concentration, FIG. 8",modest relaxation
same,concentration affording protection from NMDA-induced apoptosis,"cerebrocortical neurons; 300 μM NMDA 20 mm, washout, apoptosis monitored 24 hours later, NMDA induced about 20% apoptosis, P<0.001",25 to 100 µM
same,NMDA-induced neuronal apoptosis,"cerebrocortical neurons; 300 μM NMDA for 20 mm, analysed next day, various concentrations, dose-dependent, P<0.001, n=3 cultures",largely prevented
same,cerebral damage after stroke,"C57B1/6 mice; 2 hr MCA occlusion, loading 100 mg/kg i.p., maintenance 40 mg/kg i.p. every 12 hr, first dose 2 hr after occlusion, TTC staining 48 hr, n=3, P<0.03 from control, P<0.05 from memantine",effective in decreasing cerebral damage after stroke
same,neuroprotection compared with memantine,"C57B1/6 mice; memantine 20 mg/kg i.p. loading, 1 mg/kg/12 hours maintenance, compound 7 100 mg/kg i.p. loading, 40 mg/kg i.p. every 12 hr",more neuroprotective than memantine
"CC(=O)NC12CC3(C)CC(C)(C1)CC(O[N+](=O)[O-])(C3)C2 [Compound 8, 1-acetamido-3,5-dimetbyl-7-nitrateadamantane]",effect on precontracted aortic vessel,"[1]; endothelium-denuded rings, 1 μM norepinephrine",relaxes a precontracted aortic vessel in a dose-dependent fashion
same,relaxations after pretreatment with hemoglobin,[1]; vessels pretreated with hemoglobin,attenuated
same,relaxations after pretreatment with methylene blue,[1]; vessels pretreated with methylene blue,attenuated
"CC12CC3(C)CC(O)(C1)CC(N(Cc1ccccc1)Cc1ccccc1)(C2)C3 [Compound 10, 1,1-dibenzylamino-3,5-dimethyl-7-hydroxy-adamantane]","effect on blood vessel, compared with solvent (EtOH)",[1]; FIG. 8,either no effect or slight contractions of blood vessels; also recorded: either no effect or slight blood vessel contractions
"CC(=O)NC12CC3(C)CC(C)(CC(CO)(C3)C1)C2 [Compound 17, 1-Acetamido-3,5-dimethyl-7-hydroxymethyladamantane]",melting point,,152 to 153 °C
"CC12CC3CC(C)(C1)CC(N)(C3)C2 [memantine, 1-amino-3,5-dimethyladamantane]",mean CSF/serum ratio,[2],0.52
same,parenchymal levels in the brain,[3],1 to 10 µM
same,"average half-life, first therapeutically relevant phase","[4]; biphasic elimination, first phase",4 to 9 h
same,"average half-life, second phase","[4]; biphasic elimination, second phase",40 to 65 h
same,elimination by the renal route,[4]; in vivo,75%-90%
same,fecal excretion,[4]; in vivo,10%-25%
same,bound to human albumin,human albumin,< 10%
